Source: publication PMC10962654 (Journal of Food and Drug Analysis, 2023)
Counter-ions that a name gives are not always drawn. Like-named read-outs stand apart in the source and are kept apart here.

Legend:
[1] = MI/R rats, plasma, n = 6
cTn I = assay: Plasma cTn I; type: in vivo, Sprague Dawley rats; conditions: MI/R rats, Sigmoid-Emax model
CK-MB = assay: Plasma CK-MB; type: in vivo, Sprague Dawley rats; conditions: MI/R rats, Sigmoid-Emax model
α-HBDH = assay: Plasma α-HBDH; type: in vivo, Sprague Dawley rats; conditions: MI/R rats, Sigmoid-Emax model
IMA = assay: Plasma IMA; type: in vivo, Sprague Dawley rats; conditions: MI/R rats, Sigmoid-Emax model
[2] = tested on: CK-MB, IMA, cTn I, and α-HBDH; assay: Cardioprotection in MI/R rats judged on the four myocardial injury biomarkers; type: in vivo, Sprague Dawley rats; conditions: plasma, ELISA, i.v.

CL1 ([1]; GHI-H (GHI 10 mL/kg, i.v.)) [L/h/kg] | CL2 ([1]; GHI-H (GHI 10 mL/kg, i.v.)) [L/h/kg] | K10 ([1]; GHI-H (GHI 10 mL/kg, i.v.)) [h⁻¹] | K12 ([1]; GHI-H (GHI 10 mL/kg, i.v.)) [h⁻¹] | K21 ([1]; GHI-H (GHI 10 mL/kg, i.v.)) [h⁻¹] | Q ([1]; GHI-H (GHI 10 mL/kg, i.v.)) [L/h/kg] | V1 ([1]; GHI-H (GHI 10 mL/kg, i.v.)) [L/kg] | V2 ([1]; GHI-H (GHI 10 mL/kg, i.v.)) [L/kg] | t1/2α ([1]; GHI-H (GHI 10 mL/kg, i.v.)) [min] | CL1 ([1]; GHI-L (GHI […], i.v.)) [L/h/kg] | CL2 ([1]; GHI-L (GHI […], i.v.)) [L/h/kg] | K10 ([1]; GHI-L (GHI […], i.v.)) [h⁻¹] | K12 ([1]; GHI-L (GHI […], i.v.)) [h⁻¹] | K21 ([1]; GHI-L (GHI […], i.v.)) [h⁻¹] | Q ([1]; GHI-L (GHI […], i.v.)) [L/h/kg] | V1 ([1]; GHI-L (GHI […], i.v.)) [L/kg] | t1/2α ([1]; GHI-L (GHI […], i.v.)) [min] | CL1 ([1]; GHI-M (GHI 5 mL/kg, i.v.)) [L/h/kg] | Molecule | Emax (maximal effect) of optimal PK/PD equation, ΔcTn I (cTn I; GHI-L ([…], i.v.)) | Emax (maximal effect) of optimal PK/PD equation, ΔCK-MB (CK-MB; GHI-L ([…], i.v.)) | further results
2.813 ± 0.459 | 6.712 ± 3.688 | 25.55 ± 19.846 | 42.24 ± 19.866 | 7.333 ± 1.971 | 6.706 ± 3.691 | 0.239 ± 0.209 | 0.855 ± 0.277 | 0.72 ± 0.36 | 3.795 ± 0.496 | 6.267 ± 0.809 | 10.125 ± 0.978 | 16.754 ± 1.998 | 3.748 ± 0.381 | 6.267 ± 0.813 | 0.379 ± 0.071 | 1.44 ± 0.12 | 2.872 ± 0.264 | C[C@@H]1O[C@@H](OC[C@H]2O[C@@H](Oc3c(-c4ccc(O)c(O)c4)oc4cc(O)cc(O)c4c3=O)[C@H](O)[C@@H](O)[C@@H]2O)[C@H](O)[C@H](O)[C@H]1O [Rutin, rutin] | 4.632 |  | CL2 ([1]; GHI-M (GHI 5 mL/kg, i.v.)): 5.018 ± 0.665 L/h/kg; K10 ([1]; GHI-M (GHI 5 mL/kg, i.v.)): 6.448 ± 1.858 h⁻¹; K12 ([1]; GHI-M (GHI 5 mL/kg, i.v.)): 11.318 ± 3.536 h⁻¹; K21 ([1]; GHI-M (GHI 5 mL/kg, i.v.)): 4.751 ± 1.024 h⁻¹; Q ([1]; GHI-M (GHI 5 mL/kg, i.v.)): 5.018 ± 0.665 L/h/kg; V1 ([1]; GHI-M (GHI 5 mL/kg, i.v.)): 0.466 ± 0.88 L/kg; V2 ([1]; GHI-M (GHI 5 mL/kg, i.v.)): 1.075 ± 0.133 L/kg; t1/2α ([1]; GHI-M (GHI 5 mL/kg, i.v.)): 2.1 ± 0.6 min
3.469 ± 0.187 | 6.658 ± 2.185 | 4.878 ± 0.808 | 9.545 ± 4.156 | 10.071 ± 3.659 | 6.656 ± 2.183 | 0.723 ± 0.095 | 0.669 ± 0.07 | 2.04 ± 0.6 | 3.317 ± 0.369 | 5.909 ± 1.304 | 8.039 ± 2.934 | 14.117 ± 4.736 | 4.662 ± 1.024 | 5.909 ± 1.300 | 0.462 ± 0.17 | 1.8 ± 0.54 | 2.808 ± 0.134 | O=C(O)/C=C/c1ccc(O)cc1 [p-Coumaric acid, p-coumaric acid] | 2.907 | 6.058 | Emax (maximal effect) of optimal PK/PD equation, ΔCK-MB (CK-MB; GHI-H (10 mL/kg, i.v.)): 15.798; Emax (maximal effect) of optimal PK/PD equation, ΔCK-MB (CK-MB; GHI-M (5 mL/kg, i.v.)): 15.943; Emax (maximal effect) of optimal PK/PD equation, Δα-HBDH (α-HBDH; GHI-H (10 mL/kg, i.v.)): 89.907; Emax (maximal effect) of optimal PK/PD equation, Δα-HBDH (α-HBDH; GHI-L ([…], i.v.)): 37.993; Emax (maximal effect) of optimal PK/PD equation, Δα-HBDH (α-HBDH; GHI-M (5 mL/kg, i.v.)): 71.86; Emax (maximal effect) of optimal PK/PD equation, ΔIMA (IMA; GHI-H (10 mL/kg, i.v.)): 62.712; Emax (maximal effect) of optimal PK/PD equation, ΔIMA (IMA; GHI-L ([…], i.v.)): 19.558; Emax (maximal effect) of optimal PK/PD equation, ΔIMA (IMA; GHI-M (5 mL/kg, i.v.)): 49.851; V2 ([1]; GHI-L (GHI […], i.v.)): 1.272 ± 0.124 L/kg; CL2 ([1]; GHI-M (GHI 5 mL/kg, i.v.)): 6.918 ± 2.46 L/h/kg; K10 ([1]; GHI-M (GHI 5 mL/kg, i.v.)): 4.277 ± 0.897 h⁻¹; K12 ([1]; GHI-M (GHI 5 mL/kg, i.v.)): 11.023 ± 5.384 h⁻¹; K21 ([1]; GHI-M (GHI 5 mL/kg, i.v.)): 10.302 ± 3.876 h⁻¹; Q ([1]; GHI-M (GHI 5 mL/kg, i.v.)): 6.919 ± 2.461 L/h/kg; V1 ([1]; GHI-M (GHI 5 mL/kg, i.v.)): 0.677 ± 0.122 L/kg; V2 ([1]; GHI-M (GHI 5 mL/kg, i.v.)): 0.7 ± 0.142 L/kg; t1/2α ([1]; GHI-M (GHI 5 mL/kg, i.v.)): 2.22 ± 1.5 min; Emax (maximal effect) of optimal PK/PD equation, ΔcTn I (cTn I; GHI-H (10 mL/kg, i.v.)): 9.007; Emax (maximal effect) of optimal PK/PD equation, ΔcTn I (cTn I; GHI-M (5 mL/kg, i.v.)): 7.258
 |  |  |  |  |  |  |  |  |  |  |  |  |  |  |  |  |  | COc1ccc(CCN(C)CCCC(C#N)(c2ccc(OC)c(OC)c2)C(C)C)cc1OC (stereo not shown) [verapamil hydrochloride, Verapamil hydrochloride] |  |  | elevated level of the four biomarkers induced by MI/R [2]: declined to different degrees
 |  |  |  |  |  |  |  |  |  |  |  |  |  |  |  |  |  | hydroxysafflor yellow A | 4.628 | 11.082 | Emax (maximal effect) of optimal PK/PD equation, ΔCK-MB (CK-MB; GHI-M (5 mL/kg, i.v.)): 27.2; Emax (maximal effect) of optimal PK/PD equation, Δα-HBDH (α-HBDH; GHI-L ([…], i.v.)): 49.45; Emax (maximal effect) of optimal PK/PD equation, Δα-HBDH (α-HBDH; GHI-M (5 mL/kg, i.v.)): 88.223; Emax (maximal effect) of optimal PK/PD equation, ΔIMA (IMA; GHI-L ([…], i.v.)): 31.473; Emax (maximal effect) of optimal PK/PD equation, ΔIMA (IMA; GHI-M (5 mL/kg, i.v.)): 49.851; Emax (maximal effect) of optimal PK/PD equation, ΔcTn I (cTn I; GHI-M (5 mL/kg, i.v.)): 7.341
 |  |  |  |  |  |  |  |  |  |  |  |  |  |  |  |  |  | kaempferol-3-O-rutinoside |  | 11.04 | 
